Results reported in ChEMBL document CHEMBL4138202, “Design, synthesis, biological evaluation and molecular modeling of novel 2-amino-4-(1-phenylethoxy) pyridine derivatives as potential ROS1 inhibitors” (Eur J Med Chem, 2018).

Assays:
NCI-H3122 = experiment: Antiproliferative activity against human NCI-H3122 cells after 48 hrs by MTT assay; conditions: NCI-H3122, 48 h
[1] = biological target: Proto-oncogene tyrosine-protein kinase ROS (Homo sapiens, UniProt P08922); experiment: Inhibition of recombinant human GST-tagged ROS1 expressed in baculovirus expression system by Z'LYTE assay
Chain of Proto-oncogene tyrosine-protein kinase ROS (P08922 whole entry): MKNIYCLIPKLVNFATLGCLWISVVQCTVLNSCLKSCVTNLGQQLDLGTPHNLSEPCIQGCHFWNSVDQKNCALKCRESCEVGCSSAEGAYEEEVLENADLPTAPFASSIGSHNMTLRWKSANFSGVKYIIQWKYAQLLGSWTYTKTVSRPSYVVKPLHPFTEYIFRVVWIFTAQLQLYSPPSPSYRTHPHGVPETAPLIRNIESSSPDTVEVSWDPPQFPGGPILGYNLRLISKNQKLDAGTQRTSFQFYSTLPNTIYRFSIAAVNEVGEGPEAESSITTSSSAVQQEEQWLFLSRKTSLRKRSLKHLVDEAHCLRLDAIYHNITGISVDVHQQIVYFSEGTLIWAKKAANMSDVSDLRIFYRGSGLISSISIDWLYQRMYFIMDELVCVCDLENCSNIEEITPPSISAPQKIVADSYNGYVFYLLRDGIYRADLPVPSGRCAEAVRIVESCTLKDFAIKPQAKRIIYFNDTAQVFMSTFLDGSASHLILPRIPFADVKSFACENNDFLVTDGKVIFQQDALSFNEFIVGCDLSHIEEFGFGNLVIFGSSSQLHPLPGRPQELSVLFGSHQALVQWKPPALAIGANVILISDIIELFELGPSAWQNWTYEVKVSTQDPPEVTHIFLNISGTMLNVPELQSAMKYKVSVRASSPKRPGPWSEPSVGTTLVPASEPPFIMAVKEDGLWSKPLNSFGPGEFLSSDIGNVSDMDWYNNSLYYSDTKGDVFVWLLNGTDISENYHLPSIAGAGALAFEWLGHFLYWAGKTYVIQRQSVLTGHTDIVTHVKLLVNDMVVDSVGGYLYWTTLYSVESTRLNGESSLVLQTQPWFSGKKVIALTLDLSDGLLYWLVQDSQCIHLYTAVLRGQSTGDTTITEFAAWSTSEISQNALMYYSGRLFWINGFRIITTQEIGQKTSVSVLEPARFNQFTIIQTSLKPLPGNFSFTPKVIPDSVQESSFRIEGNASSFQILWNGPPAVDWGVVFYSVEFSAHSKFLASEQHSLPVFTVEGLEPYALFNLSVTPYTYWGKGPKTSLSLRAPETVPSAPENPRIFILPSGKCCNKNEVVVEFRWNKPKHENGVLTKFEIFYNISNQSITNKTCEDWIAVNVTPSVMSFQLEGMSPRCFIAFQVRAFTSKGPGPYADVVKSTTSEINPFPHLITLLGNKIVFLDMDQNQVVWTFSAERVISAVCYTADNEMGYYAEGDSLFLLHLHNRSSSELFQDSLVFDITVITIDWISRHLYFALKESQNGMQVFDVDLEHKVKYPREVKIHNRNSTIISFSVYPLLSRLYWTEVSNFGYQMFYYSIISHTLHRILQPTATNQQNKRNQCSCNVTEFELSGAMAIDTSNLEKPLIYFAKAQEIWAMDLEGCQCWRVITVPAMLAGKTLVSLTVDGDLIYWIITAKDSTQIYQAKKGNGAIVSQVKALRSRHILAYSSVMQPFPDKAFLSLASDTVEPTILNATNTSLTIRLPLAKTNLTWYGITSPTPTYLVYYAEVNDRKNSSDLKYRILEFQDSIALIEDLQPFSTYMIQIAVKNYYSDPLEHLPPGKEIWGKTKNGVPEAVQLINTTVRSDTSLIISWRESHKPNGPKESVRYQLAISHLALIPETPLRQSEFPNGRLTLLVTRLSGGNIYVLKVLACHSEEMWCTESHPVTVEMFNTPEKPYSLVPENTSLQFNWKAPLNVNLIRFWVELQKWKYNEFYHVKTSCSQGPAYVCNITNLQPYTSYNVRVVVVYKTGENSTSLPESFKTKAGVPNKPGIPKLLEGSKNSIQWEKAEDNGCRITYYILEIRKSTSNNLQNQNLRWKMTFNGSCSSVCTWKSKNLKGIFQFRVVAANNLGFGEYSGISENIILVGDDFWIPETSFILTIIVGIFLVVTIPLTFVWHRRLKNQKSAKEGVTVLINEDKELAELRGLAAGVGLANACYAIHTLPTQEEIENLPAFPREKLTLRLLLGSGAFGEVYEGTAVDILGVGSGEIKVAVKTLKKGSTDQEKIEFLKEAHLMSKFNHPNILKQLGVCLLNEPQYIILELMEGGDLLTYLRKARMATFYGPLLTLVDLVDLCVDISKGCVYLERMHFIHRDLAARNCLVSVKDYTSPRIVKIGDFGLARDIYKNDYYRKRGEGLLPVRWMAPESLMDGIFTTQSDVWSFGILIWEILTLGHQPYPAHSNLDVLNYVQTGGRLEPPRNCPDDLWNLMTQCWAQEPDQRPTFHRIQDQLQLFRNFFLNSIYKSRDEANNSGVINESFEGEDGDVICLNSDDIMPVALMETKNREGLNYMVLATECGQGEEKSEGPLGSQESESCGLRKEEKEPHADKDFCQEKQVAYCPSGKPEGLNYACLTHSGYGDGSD

[2] = biological target: ALK tyrosine kinase receptor (Homo sapiens, UniProt Q9UM73); experiment: Inhibition of recombinant human GST-tagged ALK expressed in baculovirus expression system by Z'LYTE assay
Chain of ALK tyrosine kinase receptor (Q9UM73 whole entry): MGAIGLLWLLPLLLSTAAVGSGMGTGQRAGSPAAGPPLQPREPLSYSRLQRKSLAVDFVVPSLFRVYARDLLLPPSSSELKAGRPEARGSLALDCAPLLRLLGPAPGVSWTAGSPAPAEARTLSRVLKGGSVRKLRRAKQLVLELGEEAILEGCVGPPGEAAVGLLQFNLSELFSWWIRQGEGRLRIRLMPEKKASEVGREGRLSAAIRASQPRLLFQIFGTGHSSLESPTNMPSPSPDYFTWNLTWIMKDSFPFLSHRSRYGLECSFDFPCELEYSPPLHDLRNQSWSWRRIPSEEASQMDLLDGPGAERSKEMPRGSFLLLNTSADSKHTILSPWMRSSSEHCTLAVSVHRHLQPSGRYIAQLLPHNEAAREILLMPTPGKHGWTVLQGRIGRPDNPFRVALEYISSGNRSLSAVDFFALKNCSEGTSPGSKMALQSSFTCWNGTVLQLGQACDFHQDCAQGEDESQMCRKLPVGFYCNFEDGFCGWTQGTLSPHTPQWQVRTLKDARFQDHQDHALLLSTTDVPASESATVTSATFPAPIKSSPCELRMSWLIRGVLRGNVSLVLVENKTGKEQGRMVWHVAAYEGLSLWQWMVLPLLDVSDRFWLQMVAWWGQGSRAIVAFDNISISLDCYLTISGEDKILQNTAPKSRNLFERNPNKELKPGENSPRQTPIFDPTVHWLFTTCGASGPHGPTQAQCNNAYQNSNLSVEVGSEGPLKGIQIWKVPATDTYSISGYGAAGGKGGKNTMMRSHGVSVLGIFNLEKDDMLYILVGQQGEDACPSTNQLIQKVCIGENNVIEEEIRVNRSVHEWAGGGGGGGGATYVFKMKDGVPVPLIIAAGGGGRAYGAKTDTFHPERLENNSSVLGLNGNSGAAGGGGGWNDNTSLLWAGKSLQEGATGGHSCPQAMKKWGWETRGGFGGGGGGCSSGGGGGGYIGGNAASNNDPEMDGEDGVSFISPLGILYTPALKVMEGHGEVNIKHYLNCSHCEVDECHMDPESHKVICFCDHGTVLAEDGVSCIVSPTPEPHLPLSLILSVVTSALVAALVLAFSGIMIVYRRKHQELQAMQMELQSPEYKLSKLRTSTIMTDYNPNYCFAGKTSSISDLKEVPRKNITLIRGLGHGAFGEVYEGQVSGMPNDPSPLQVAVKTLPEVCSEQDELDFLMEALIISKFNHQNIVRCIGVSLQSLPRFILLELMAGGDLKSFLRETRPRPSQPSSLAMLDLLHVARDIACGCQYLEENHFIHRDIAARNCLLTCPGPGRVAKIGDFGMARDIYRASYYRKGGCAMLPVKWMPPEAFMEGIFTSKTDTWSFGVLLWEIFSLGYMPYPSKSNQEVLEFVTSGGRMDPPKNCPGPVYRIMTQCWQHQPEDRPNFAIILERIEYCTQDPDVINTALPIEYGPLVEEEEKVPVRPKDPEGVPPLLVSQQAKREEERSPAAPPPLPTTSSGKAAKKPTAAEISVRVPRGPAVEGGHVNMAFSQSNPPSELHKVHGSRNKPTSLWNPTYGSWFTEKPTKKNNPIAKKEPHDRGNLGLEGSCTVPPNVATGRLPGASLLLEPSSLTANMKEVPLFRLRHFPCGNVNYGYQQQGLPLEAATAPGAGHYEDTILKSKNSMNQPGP

HCC78 = experiment: Antiproliferative activity against human HCC78 cells after 48 hrs by MTT assay; conditions: HCC78, 48 h
[3] = biological target: Tyrosine-protein kinase JAK2 (Homo sapiens) (UniProt O60674); experiment: Inhibition of recombinant human GST-tagged JAK2 expressed in baculovirus expression system at 1 uM by Z'LYTE assay relative to control
[4] = biological target: Fibroblast growth factor receptor 1 (Homo sapiens) (UniProt P11362); experiment: Inhibition of recombinant human His-tagged FGFR1 expressed in baculovirus expression system at 1 uM by Z'LYTE assay relative to control
Chain of Fibroblast growth factor receptor 1 (Homo sapiens) (P11362 22-822 limits assumed): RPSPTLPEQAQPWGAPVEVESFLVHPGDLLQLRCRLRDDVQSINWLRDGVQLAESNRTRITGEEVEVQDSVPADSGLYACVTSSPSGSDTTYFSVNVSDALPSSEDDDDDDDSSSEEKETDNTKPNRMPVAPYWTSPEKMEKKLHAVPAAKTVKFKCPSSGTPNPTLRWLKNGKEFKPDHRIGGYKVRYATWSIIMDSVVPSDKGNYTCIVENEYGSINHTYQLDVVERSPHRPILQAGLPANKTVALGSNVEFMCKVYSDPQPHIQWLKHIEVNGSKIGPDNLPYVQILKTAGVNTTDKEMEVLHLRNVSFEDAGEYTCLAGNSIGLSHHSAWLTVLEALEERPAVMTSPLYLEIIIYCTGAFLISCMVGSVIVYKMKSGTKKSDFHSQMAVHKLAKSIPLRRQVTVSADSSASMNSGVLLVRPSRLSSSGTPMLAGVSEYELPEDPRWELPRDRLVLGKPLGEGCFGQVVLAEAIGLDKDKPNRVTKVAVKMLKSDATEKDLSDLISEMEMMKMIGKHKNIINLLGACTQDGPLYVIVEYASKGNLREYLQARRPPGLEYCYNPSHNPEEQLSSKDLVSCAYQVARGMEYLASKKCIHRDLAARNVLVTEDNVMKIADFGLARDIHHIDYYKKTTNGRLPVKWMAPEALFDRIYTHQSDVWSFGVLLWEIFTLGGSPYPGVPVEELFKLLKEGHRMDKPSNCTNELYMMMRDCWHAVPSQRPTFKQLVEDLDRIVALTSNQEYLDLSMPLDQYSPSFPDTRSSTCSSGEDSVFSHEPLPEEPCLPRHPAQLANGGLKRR

[5] = biological target: Mast/stem cell growth factor receptor Kit (Homo sapiens) (UniProt P10721); experiment: Inhibition of KIT (unknown origin) at 1 uM by Z'LYTE assay relative to control
[6] = biological target: Leukocyte tyrosine kinase receptor (Homo sapiens) (UniProt P29376); experiment: Inhibition of recombinant human GST-tagged LTK expressed in baculovirus expression system at 1 uM by Z'LYTE assay relative to control
[7] = biological target: CDK2/Cyclin A2 (Homo sapiens) (UniProt P24941+P20248); experiment: Inhibition of recombinant human full length His-tagged CDK2/cyclin A expressed in baculovirus expression system at 1 uM by Z'LYTE assay relative to control
[8] = biological target: Insulin-like growth factor 1 receptor (Homo sapiens) (UniProt P08069); experiment: Inhibition of recombinant human His-tagged IGF1R expressed in baculovirus expression system at 1 uM by Z'LYTE assay relative to control
[9] = biological target: Serine/threonine-protein kinase B-raf (Homo sapiens) (UniProt P15056); experiment: Inhibition of recombinant human full length GST-tagged BRAF expressed in baculovirus expression system at 1 uM by Z'LYTE assay relative to control
[10] = biological target: Tyrosine-protein kinase ABL1 (Homo sapiens) (UniProt P00519); experiment: Inhibition of recombinant human His-tagged ABL1 expressed in baculovirus expression system at 1 uM by Z'LYTE assay relative to control
[11] = biological target: Mitogen-activated protein kinase 3 (Homo sapiens) (UniProt P27361); experiment: Inhibition of recombinant human GST-tagged full length MAPK3 expressed in Escherichia coli at 1 uM by Z'LYTE assay relative to control
Chain of Mitogen-activated protein kinase 3 (Homo sapiens) (P27361 whole entry): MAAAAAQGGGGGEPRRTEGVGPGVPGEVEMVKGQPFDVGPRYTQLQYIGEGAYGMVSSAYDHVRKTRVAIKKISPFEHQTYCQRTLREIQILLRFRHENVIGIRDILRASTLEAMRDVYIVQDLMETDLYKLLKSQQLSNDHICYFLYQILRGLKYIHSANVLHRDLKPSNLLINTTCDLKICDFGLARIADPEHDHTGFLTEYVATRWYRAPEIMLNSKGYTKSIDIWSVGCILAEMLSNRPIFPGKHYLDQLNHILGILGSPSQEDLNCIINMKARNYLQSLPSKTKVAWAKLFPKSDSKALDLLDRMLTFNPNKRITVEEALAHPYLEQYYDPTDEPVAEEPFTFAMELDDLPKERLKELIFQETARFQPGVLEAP

[12] = biological target: Hepatocyte growth factor receptor (Homo sapiens) (UniProt P08581); experiment: Inhibition of recombinant human His-tagged MET expressed in mammalian expression system at 1 uM by Z'LYTE assay relative to control
[13] = biological target: Platelet-derived growth factor receptor alpha (Homo sapiens) (UniProt P16234); experiment: Inhibition of recombinant human GST-tagged PDGFRalpha expressed in baculovirus expression system at 1 uM by Z'LYTE assay relative to control
[14] = biological target: Epidermal growth factor receptor (Homo sapiens) (UniProt P00533); experiment: Inhibition of recombinant human GST-tagged EGFR expressed in baculovirus expression system at 1 uM by Z'LYTE assay relative to control

IC50 (NCI-H3122)	IC50 [1]	IC50 (HCC78)	SMILES	further results
> 100 µM	8.7 µM	63.1 µM	CC(Oc1cccnc1Nc1cnn(C)c1)c1cccc(C(=O)NCc2ccccc2S(=O)(=O)C(C)C)c1 (stereo unspecified)	IC50 [2]: > 10 µM
15.3 µM	> 10 µM	27.1 µM	Cc1ccc(CNC(=O)c2cccc(C(C)Oc3cccnc3Nc3nccs3)c2)cc1 (stereo unspecified)	–
> 100 µM	1.8 µM	64.4 µM	COc1cccc(CNC(=O)c2cccc(C(C)Oc3ccnc(Nc4cnn(C)c4)c3)c2)c1 (stereo unspecified)	–
23.7 µM	> 10 µM	9.4 µM	Cc1ccc(CNC(=O)c2cccc(C(C)Oc3cccnc3Nn3cnnc3)c2)cc1 (stereo unspecified)	–
8.3 µM	> 10 µM	73.9 µM	CC(Oc1cccnc1Nc1cnn(C)c1)c1cccc(C(=O)NCc2ccc(OC(F)(F)F)cc2)c1 (stereo unspecified)	–
49.4 µM	> 10 µM	78.6 µM	COc1cccc(CNC(=O)c2cccc(C(C)Oc3cccnc3Nc3cnn(C)c3)c2)c1 (stereo unspecified)	–
8.2 µM	9.6 µM	34.7 µM	Cc1cnc(Nc2ncccc2OC(C)c2cccc(C(=O)NCc3ccc(F)c(Cl)c3)c2)s1 (stereo unspecified)	–
50.7 µM	6.3 µM	48.6 µM	CC(Oc1cccnc1Nc1cnn(C)c1)c1cccc(C(=O)NCc2ccc(Cl)c(C(F)(F)F)c2)c1 (stereo unspecified)	–
43.8 µM	> 10 µM	68.5 µM	CC(Oc1cccnc1Nc1cnn(C)c1)c1cccc(C(=O)NCc2ccc(F)cc2)c1 (stereo unspecified)	–
38.5 µM	0.64 µM	76.6 µM	COc1ccc(CNC(=O)c2cccc(C(C)Oc3ccnc(Nc4cnn(C)c4)c3)c2)cc1OC (stereo unspecified)	–
8.5 µM	9.4 µM	14.8 µM	Cc1ccc(CNC(=O)c2cccc(C(C)Oc3cccnc3Nc3ncc(C)s3)c2)cc1 (stereo unspecified)	IC50 [2]: > 10 µM
> 100 µM	2.4 µM	49.7 µM	Cc1ccc(CNC(=O)c2cccc(C(C)Oc3ccnc(Nc4cnn(CC(C)(C)O)c4)c3)c2)cc1 (stereo unspecified)	IC50 [2]: > 10 µM
20.8 µM	> 10 µM	17.6 µM	Cc1ccc(CNC(=O)c2cccc(C(C)Oc3cccnc3Nc3nncs3)c2)cc1 (stereo unspecified)	–
35.7 µM	> 10 µM	7.8 µM	CC(Oc1cccnc1Nc1cnn(C)c1)c1cccc(C(=O)NCc2ccc(F)c(Cl)c2)c1 (stereo unspecified)	–
7.6 µM	2.4 µM	13.2 µM	CC(Oc1ccnc(Nc2cnn(C)c2)c1)c1cccc(C(=O)NCc2cc(F)cc(F)c2)c1 (stereo unspecified)	–
35.1 µM	1.5 µM	8.7 µM	CC(Oc1ccnc(Nc2cnn(C)c2)c1)c1cccc(C(=O)NCc2ccc(C#N)cc2)c1 (stereo unspecified)	–
38.4 µM	8.7 µM	57.4 µM	Cc1ccc(CNC(=O)c2cccc(C(C)Oc3cccnc3Nc3cnn(CC#N)c3)c2)cc1 (stereo unspecified)	IC50 [2]: > 10 µM
> 100 µM	6.2 µM	> 100 µM	Cc1ccc(CNC(=O)c2cccc(C(C)Oc3cccnc3Nc3ncccn3)c2)cc1 (stereo unspecified)	IC50 [2]: > 10 µM
7.7 µM	1.8 µM	8.9 µM	Cc1ccc(CNC(=O)c2cccc(C(C)Oc3ccnc(Nc4cnn(C)c4)c3)c2)cc1 (stereo unspecified)	–
9.1 µM	9.4 µM	20.5 µM	Cc1ccc(CNC(=O)c2cccc(C(C)Oc3cccnc3Nc3cnn(CC(C)(C)O)c3)c2)cc1 (stereo unspecified)	IC50 [2]: > 10 µM

The next lines start with the compound.

SMILES	IC50 (NCI-H3122)	IC50 [1]	IC50 (HCC78)	further results
COc1ccc(CNC(=O)c2cccc(C(C)Oc3ccnc(Nc4cnn(C5CCNCC5)c4)c3)c2)cc1OC (stereo unspecified)	47.2 µM	0.37 µM	65.3 µM	inhibition [3]: 10%; inhibition [4]: 16%; inhibition [5]: 3%; inhibition [6]: 15%; inhibition [7]: 2%; inhibition [8]: 9%; inhibition [9]: 13%; inhibition [10]: 11%; inhibition [11]: 7%; IC50 [2]: 4.5 µM; inhibition [12]: 5%; inhibition [13]: 1%; inhibition [14]: 0%
Cc1ccc(CNC(=O)c2cccc(C(C)Oc3ccnc(NN4CCN(C)CC4)c3)c2)cc1 (stereo unspecified)	8.1 µM	> 10 µM	26.2 µM	–
CC(Oc1ccnc(Nc2cnn(C)c2)c1)c1cccc(C(=O)NCc2cc(C(F)(F)F)cc(C(F)(F)F)c2)c1 (stereo unspecified)	24.7 µM	7.4 µM	9.3 µM	IC50 [2]: > 10 µM
Cc1ccc(CNC(=O)c2cccc(C(C)Oc3ccnc(Nc4nc5ccccc5[nH]4)c3)c2)cc1 (stereo unspecified)	9.4 µM	> 10 µM	> 100 µM	IC50 [2]: > 10 µM
CC(Oc1ccnc(NN2CCN(C)CC2)c1)c1cccc(C(=O)NCc2ccc(Cl)c(C(F)(F)F)c2)c1 (stereo unspecified)	21.7 µM	9.1 µM	23.5 µM	–
C[C@@H](Oc1cc(-c2cnn(C3CCNCC3)c2)cnc1N)c1c(Cl)ccc(F)c1Cl [CRIZOTINIB]	0.8 µM	–	2 µM	–
COc1ccc(CNC(=O)c2cccc(C(C)Oc3ccnc(Nc4ncccn4)c3)c2)cc1OC (stereo unspecified)	> 100 µM	0.44 µM	> 100 µM	–
Cc1ccc(CNC(=O)c2cccc(C(C)Oc3ccnc(Nc4cn(C)nc4C)c3)c2)cc1 (stereo unspecified)	13.4 µM	1.4 µM	17.5 µM	–
Cc1ccc(CNC(=O)c2cccc(C(C)Oc3ccnc(NN4CCOCC4)c3)c2)cc1 (stereo unspecified)	> 100 µM	> 10 µM	68.3 µM	–
COc1cc(Nc2cc(OC(C)c3cccc(C(=O)NCc4ccc(C)cc4)c3)ccn2)cc(OC)c1OC (stereo unspecified)	7.8 µM	2.4 µM	15.7 µM	–
Cc1ccc(CNC(=O)c2cccc(C(C)Oc3ccnc(NN4CCCCC4)c3)c2)cc1 (stereo unspecified)	37.4 µM	> 10 µM	24.5 µM	–
CC(Oc1ccnc(Nc2cnn(C3CCN(C)CC3)c2)c1)c1cccc(C(=O)NCc2ccc(Cl)c(C(F)(F)F)c2)c1 (stereo unspecified)	8 µM	2.3 µM	7.3 µM	–
Cc1ccc(CNC(=O)c2cccc(C(C)Oc3ccnc(Nc4cnn(C5CCN(C)CC5)c4)c3)c2)cc1 (stereo unspecified)	8.9 µM	0.44 µM	8.1 µM	inhibition [3]: 12%; inhibition [4]: 11%; inhibition [5]: 2%; inhibition [6]: 9%; inhibition [7]: 1%; inhibition [8]: 7%; inhibition [9]: 15%; inhibition [10]: 9%; inhibition [11]: 8%; IC50 [2]: 3.1 µM; inhibition [12]: 3%; inhibition [13]: 6%; inhibition [14]: 1%
CC(Oc1ccnc(Nc2cnn(CC(C)(C)O)c2)c1)c1cccc(C(=O)NCc2ccc(Cl)c(C(F)(F)F)c2)c1 (stereo unspecified)	38.4 µM	8.4 µM	> 100 µM	–
COc1ccc(CNC(=O)c2cccc(C(C)Oc3ccnc(Nc4cnn(C5CCN(C)CC5)c4)c3)c2)cc1OC (stereo unspecified)	14.8 µM	0.57 µM	9 µM	–
COc1cc(CNC(=O)c2cccc(C(C)Oc3ccnc(Nc4cnn(C)c4)c3)c2)cc(OC)c1OC (stereo unspecified)	29 µM	0.41 µM	73.9 µM	–
